Source: PMC8222254, “Self-assembly of an anion receptor with metal-dependent kinase inhibition and potent in vitro anti-cancer properties” (Nature Communications, 2021)
“And” between values parts separate entries of the source, which are not always exact repeats. Equal entries are not always repeated.

What was measured:
Assay in all cases: Kinase inhibition screen, cell-free 33P ATP assay at 10 μM
Format in all cases: biochemical
[1] = target: 140 purified human kinases (Homo sapiens, UniProt Q9P289)
Outline: (§1)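 Each complex tested in duplicate at 10 μM; cell-free radiometric assay using ^33P ATP on purified enzymes. Hits mapped by HGNC symbol onto the kinome tree.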

[2] = target: 140 purified human kinases (Homo sapiens, UniProt Q13882); details: BRK
Outline: as §1

[3] = target: 140 purified human kinases (Homo sapiens, UniProt P16234); details: PDGFRA
Outline: as §1

[4] = target: 140 purified human kinases (Homo sapiens, UniProt Q9HBH9)
Outline: as §1

[5] = target: 140 purified human kinases (Homo sapiens, UniProt P31749); details: PKBa
Outline: as §1

[6] = target: T1, 140 purified human kinases (Homo sapiens, UniProt O14965); details: Aurora A
T1 sequence (O14965 1-403): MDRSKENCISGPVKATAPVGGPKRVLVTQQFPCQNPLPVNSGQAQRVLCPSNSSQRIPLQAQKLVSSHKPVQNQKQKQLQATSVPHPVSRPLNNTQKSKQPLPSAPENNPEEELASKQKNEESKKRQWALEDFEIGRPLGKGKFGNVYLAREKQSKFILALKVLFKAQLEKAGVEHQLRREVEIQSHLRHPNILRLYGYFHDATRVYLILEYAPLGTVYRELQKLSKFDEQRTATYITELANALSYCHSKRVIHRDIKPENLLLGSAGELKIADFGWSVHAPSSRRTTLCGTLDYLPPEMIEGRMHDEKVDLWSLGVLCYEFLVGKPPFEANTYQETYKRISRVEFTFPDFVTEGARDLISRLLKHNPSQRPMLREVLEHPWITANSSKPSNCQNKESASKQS
Outline: as §1

[7] = target: T2, 140 purified human kinases (Homo sapiens, UniProt P53778); details: p38g MAPK
T2 sequence (P53778 1-367): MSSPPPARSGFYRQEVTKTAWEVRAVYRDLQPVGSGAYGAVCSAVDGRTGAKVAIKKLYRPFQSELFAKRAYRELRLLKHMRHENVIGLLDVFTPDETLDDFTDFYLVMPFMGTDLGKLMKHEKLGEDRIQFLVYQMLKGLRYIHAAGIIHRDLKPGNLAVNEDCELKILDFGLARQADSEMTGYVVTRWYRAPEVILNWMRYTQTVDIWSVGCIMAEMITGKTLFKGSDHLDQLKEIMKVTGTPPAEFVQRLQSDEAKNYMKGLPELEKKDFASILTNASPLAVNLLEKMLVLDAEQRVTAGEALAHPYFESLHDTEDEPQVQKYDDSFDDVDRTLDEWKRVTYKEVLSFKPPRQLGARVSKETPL
Outline: as §1

[8] = target: 140 purified human kinases (Homo sapiens, UniProt Q15418)
Outline: as §1

[9] = target: T3, 140 purified human kinases (Homo sapiens, UniProt Q8TD08)
T3 sequence (Q8TD08 1-544): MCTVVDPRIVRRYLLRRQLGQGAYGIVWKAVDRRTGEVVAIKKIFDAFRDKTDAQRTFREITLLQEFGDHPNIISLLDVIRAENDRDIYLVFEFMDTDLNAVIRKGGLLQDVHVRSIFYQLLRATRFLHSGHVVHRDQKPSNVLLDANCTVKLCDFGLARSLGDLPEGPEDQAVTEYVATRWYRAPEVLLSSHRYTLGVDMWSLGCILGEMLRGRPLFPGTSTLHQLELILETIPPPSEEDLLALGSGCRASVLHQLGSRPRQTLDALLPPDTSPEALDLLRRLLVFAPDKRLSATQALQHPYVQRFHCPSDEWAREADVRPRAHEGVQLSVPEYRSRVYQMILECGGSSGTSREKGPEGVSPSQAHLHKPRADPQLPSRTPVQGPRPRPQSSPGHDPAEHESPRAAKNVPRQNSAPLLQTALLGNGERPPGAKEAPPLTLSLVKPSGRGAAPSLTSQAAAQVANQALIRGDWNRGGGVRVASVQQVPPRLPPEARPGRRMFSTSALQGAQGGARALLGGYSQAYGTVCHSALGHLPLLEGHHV
Outline: as §1

[10] = target: 140 purified human kinases (Homo sapiens, UniProt P45983)
Outline: as §1

140 purified human kinases (Homo sapiens, UniProt Q15418), sequence (Q15418 whole entry): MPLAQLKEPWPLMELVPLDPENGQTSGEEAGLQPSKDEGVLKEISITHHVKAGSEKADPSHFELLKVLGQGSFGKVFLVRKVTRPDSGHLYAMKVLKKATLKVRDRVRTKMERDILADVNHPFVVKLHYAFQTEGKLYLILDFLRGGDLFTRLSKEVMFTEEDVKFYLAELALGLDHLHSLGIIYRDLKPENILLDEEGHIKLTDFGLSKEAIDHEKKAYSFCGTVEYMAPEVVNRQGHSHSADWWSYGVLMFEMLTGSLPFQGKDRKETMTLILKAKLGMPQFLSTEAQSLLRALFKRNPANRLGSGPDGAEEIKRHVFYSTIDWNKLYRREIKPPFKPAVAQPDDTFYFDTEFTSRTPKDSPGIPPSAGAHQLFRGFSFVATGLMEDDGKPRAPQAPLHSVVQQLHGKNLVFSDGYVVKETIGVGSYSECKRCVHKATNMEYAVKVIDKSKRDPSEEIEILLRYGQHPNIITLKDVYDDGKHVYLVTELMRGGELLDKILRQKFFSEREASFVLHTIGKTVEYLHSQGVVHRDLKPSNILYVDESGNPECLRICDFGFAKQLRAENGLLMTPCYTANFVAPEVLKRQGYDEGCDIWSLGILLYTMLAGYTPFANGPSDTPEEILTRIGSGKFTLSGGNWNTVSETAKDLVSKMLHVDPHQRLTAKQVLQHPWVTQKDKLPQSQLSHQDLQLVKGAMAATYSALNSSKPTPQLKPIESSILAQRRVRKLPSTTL
140 purified human kinases (Homo sapiens, UniProt Q9P289), sequence (Q9P289 whole entry): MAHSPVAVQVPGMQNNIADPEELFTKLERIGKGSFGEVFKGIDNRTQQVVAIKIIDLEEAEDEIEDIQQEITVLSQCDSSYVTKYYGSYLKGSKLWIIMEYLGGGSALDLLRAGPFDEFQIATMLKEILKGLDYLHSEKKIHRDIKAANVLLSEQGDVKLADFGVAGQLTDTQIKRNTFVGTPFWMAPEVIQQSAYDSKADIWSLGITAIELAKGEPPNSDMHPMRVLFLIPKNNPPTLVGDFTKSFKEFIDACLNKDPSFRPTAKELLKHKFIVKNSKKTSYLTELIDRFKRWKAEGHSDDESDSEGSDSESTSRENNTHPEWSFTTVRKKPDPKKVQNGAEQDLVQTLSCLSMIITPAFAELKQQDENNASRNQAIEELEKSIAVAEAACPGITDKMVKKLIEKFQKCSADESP
140 purified human kinases (Homo sapiens, UniProt Q13882), sequence (Q13882 whole entry): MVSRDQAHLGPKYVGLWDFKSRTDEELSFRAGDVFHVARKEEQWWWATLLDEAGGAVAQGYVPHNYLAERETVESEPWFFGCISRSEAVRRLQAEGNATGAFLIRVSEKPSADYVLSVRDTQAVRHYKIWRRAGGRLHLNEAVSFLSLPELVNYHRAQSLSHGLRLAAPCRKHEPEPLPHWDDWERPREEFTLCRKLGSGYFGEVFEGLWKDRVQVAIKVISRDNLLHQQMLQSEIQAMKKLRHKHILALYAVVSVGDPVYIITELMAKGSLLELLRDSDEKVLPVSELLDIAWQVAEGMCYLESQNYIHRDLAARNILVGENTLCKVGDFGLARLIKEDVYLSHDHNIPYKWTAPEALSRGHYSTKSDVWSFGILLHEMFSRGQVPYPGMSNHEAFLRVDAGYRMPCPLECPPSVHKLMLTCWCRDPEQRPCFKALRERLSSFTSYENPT
140 purified human kinases (Homo sapiens, UniProt P45983), sequence (P45983 whole entry): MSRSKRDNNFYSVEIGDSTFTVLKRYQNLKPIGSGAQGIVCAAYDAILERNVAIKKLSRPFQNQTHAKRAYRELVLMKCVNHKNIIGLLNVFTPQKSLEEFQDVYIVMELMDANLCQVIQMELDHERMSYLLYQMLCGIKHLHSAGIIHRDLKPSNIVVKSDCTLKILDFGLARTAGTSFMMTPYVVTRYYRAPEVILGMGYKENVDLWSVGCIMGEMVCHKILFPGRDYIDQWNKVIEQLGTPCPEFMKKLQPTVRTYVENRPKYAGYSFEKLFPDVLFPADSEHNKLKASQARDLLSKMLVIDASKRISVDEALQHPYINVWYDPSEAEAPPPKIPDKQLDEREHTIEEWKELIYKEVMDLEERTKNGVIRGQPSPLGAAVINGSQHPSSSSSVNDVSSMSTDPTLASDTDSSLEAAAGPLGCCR
140 purified human kinases (Homo sapiens, UniProt Q9HBH9), sequence (Q9HBH9 whole entry): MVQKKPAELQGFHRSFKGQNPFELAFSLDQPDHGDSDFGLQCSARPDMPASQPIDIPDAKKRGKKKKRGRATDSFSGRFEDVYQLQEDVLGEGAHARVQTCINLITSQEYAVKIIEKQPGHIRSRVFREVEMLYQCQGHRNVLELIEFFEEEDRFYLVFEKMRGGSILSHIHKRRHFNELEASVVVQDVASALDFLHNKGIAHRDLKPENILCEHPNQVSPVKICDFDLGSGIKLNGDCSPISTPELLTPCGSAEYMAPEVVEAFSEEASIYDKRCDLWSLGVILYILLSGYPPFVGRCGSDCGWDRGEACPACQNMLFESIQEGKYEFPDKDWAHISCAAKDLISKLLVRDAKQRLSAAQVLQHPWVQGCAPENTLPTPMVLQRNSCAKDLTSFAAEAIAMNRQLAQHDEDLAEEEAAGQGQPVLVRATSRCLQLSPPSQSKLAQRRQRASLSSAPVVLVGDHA
140 purified human kinases (Homo sapiens, UniProt P16234), sequence (P16234 24-1089): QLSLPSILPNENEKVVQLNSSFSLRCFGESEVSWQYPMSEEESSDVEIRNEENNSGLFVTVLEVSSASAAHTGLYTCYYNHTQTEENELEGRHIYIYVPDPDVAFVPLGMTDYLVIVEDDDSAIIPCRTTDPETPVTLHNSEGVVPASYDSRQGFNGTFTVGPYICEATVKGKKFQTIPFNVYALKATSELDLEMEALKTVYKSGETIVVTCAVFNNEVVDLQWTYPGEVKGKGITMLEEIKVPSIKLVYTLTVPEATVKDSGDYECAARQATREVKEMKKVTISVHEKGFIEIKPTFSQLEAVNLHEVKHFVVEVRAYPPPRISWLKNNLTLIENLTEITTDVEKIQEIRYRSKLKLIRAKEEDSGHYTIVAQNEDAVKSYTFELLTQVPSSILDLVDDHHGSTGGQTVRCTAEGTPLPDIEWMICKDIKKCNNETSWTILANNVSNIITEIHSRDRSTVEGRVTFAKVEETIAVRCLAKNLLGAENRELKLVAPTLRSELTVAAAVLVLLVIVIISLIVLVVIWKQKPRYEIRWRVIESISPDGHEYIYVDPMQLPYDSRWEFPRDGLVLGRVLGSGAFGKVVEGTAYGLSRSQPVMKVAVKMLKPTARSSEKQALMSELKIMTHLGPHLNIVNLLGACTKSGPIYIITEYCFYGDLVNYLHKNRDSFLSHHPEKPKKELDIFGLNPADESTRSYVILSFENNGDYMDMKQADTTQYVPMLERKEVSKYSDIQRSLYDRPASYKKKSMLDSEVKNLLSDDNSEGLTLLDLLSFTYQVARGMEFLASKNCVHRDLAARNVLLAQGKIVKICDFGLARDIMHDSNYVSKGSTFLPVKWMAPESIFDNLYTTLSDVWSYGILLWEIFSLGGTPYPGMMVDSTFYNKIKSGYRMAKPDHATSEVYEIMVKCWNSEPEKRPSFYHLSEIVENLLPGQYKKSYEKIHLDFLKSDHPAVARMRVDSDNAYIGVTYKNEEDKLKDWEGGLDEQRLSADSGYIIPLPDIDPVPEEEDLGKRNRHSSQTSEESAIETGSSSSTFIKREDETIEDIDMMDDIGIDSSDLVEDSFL
140 purified human kinases (Homo sapiens, UniProt P31749), sequence (P31749 whole entry): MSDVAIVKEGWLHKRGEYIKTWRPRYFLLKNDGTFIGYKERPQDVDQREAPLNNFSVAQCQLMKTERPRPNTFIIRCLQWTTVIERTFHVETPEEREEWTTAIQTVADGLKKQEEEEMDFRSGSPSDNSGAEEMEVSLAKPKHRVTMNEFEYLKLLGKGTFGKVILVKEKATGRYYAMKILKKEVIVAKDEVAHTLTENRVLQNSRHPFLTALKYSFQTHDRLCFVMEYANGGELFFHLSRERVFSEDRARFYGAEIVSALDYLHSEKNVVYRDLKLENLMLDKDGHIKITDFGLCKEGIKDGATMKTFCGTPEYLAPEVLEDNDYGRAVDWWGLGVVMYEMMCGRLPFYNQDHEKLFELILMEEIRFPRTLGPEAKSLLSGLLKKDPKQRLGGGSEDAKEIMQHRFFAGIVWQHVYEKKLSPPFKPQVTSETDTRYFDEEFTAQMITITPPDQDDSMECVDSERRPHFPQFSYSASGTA

## [Cu+2].[Cu+2].[Cu+2].c1ccc(-c2csc(NCCN(CCNc3nc(-c4ccccn4)cs3)CCNc3nc(-c4ccccn4)cs3)n2)nc1.c1ccc(-c2csc(NCCN(CCNc3nc(-c4ccccn4)cs3)CCNc3nc(-c4ccccn4)cs3)n2)nc1 [[L2Cu3]6+]
[1]; MST4
  % Inhibition Run 1: 74.5%
  % Inhibition Run 2: 70.2%
  % Inhibition, Mean: 72%
  mean % activity: 28%
[1]; MST4, Run 1
  % activity: 25.5%
[1]; MST4, Run 2
  % activity: 29.8%
[2]
  % Inhibition Run 1: 67.9%
  % Inhibition Run 2: 57.6%
  % Inhibition, Mean: 63%
  mean % activity: 37%
[2]; Run 1
  % activity: 32.1%
[2]; Run 2
  % activity: 42.4%
[3]
  % Activation, Mean value: 4.7%
  % Inhibition Run 1: 10.8%
  % Inhibition Run 2: -20.2%
  % Inhibition, Mean: -4.7%
  mean % activity: 105%
[3]; Run 1
  % activity: 89.2%
[3]; Run 2
  % activity: 120.2%
[4]; MNK2
  % Inhibition Run 1: 59.3%
  % Inhibition Run 2: 57.8%
  % Inhibition, Mean: 59%
  mean % activity: 41%
[4]; MNK2, Run 1
  % activity: 40.7%
[4]; MNK2, Run 2
  % activity: 42.2%
[5]
  % Inhibition Run 1: 72.1%
  % Inhibition Run 2: 76%
  % Inhibition, Mean: 74%
  mean % activity: 26%
[5]; Run 1
  % activity: 27.9%
[5]; Run 2
  % activity: 24%
[6]
  % Inhibition Run 1: 30.9%
  % Inhibition Run 2: 28.1%
  % Inhibition, Mean: 30%
  mean % activity: 71%
[6]; Run 1
  % activity: 69.1%
[6]; Run 2
  % activity: 71.9%
[7]
  % Activation, Mean value: 3.55%
  % Inhibition Run 1: -1.3%
  % Inhibition Run 2: -5.8%
  % Inhibition, Mean: -3.55%
  mean % activity: 104%
[7]; Run 1
  % activity: 101.3%
[7]; Run 2
  % activity: 105.8%
[8]; RSK1
  % Inhibition Run 1: 96.7%
  % Inhibition Run 2: 97%
  % Inhibition, Mean: 97%
  mean % activity: 3%
[8]; RSK1, Run 1
  % activity: 3.3%
[8]; RSK1, Run 2
  % activity: 3%
[8]; RSK1, 10 µM
  % Activity inhibition Mean: 96.9%
  % Activity inhibition Run 1: 96.7%
  % Activity inhibition Run 2: 97%
  % Activity remaining Run 1: 3.30%
  % Activity remaining Run 2: 3.00%
[9]; ERK8
  % Activation, Mean value: 27%
  % Inhibition Run 1: -16.9%
  % Inhibition Run 2: -37.3%
  % Inhibition, Mean: -27%
  mean % activity: 127%
[9]; ERK8, Run 1
  % activity: 116.9%
[9]; ERK8, Run 2
  % activity: 137.3%
[9]; ERK8, 10 µM
  % Activity Run 1: 116.90%
  % Activity Run 2: 137.30%
[10]; JNK1
  % Inhibition Run 1: 20.4%
  % Inhibition Run 2: 5.8%
  % Inhibition, Mean: 13%
  mean % activity: 87%
[10]; JNK1, Run 1
  % activity: 79.6%
[10]; JNK1, Run 2
  % activity: 94.2%

## CC(=O)[O-].CC(=O)[O-].CC(=O)[O-].CC(=O)[O-].CC(=O)[O-].CC(=O)[O-].[Zn+2].[Zn+2].[Zn+2].c1ccc(-c2csc(NCCN(CCNc3nc(-c4ccccn4)cs3)CCNc3nc(-c4ccccn4)cs3)n2)nc1.c1ccc(-c2csc(NCCN(CCNc3nc(-c4ccccn4)cs3)CCNc3nc(-c4ccccn4)cs3)n2)nc1 [[L2Zn3]6+]
[1]; MST4
  % Inhibition, Mean: 23%
  % Inhibition, Run 1 / Run 2: 26% and 19%
  mean % activity: 77%
[1]; MST4, duplicate runs
  % activity: 74% and 81%
[2]
  % Inhibition, Mean: 76%
  % Inhibition, Run 1 / Run 2: 83% and 69%
  mean % activity: 24%
[2]; duplicate runs
  % activity: 17% and 31%
[3]
  % Inhibition, Mean: 24%
  % Inhibition, Run 1 / Run 2: 27% and 22%
  mean % activity: 76%
[3]; duplicate runs
  % activity: 74% and 78%
[4]; MNK2
  % Inhibition, Mean: 33%
  % Inhibition, Run 1 / Run 2: 44% and 22%
  mean % activity: 67%
[4]; MNK2, duplicate runs
  % activity: 57% and 78%
[5]
  % Inhibition, Mean: 17%
  mean % activity: 83%
[5]; duplicate runs
  % activity: 68% and 99%
[6]
  % Inhibition, Mean: 83%
  % Inhibition, Run 1 / Run 2: 84% and 83%
  mean % activity: 17%
[6]; 10 µM
  % Activity inhibition Mean: 83.5%
  % Activity inhibition Run 1: 84%
  % Activity inhibition Run 2: 83%
  % Activity remaining Run 1: 16%
  % Activity remaining Run 2: 17%
[6]; duplicate runs
  % activity: 16% and 17%
[7]
  % Activation, Mean value: 5%
  % Inhibition, Mean: -5%
  % Inhibition, Run 1 / Run 2: -3.4% and -6.5%
  mean % activity: 105%
[7]; duplicate runs
  % activity: 103% and 107%
[8]; RSK1
  % Inhibition, Mean: 73%
  % Inhibition, Run 1 / Run 2: 76% and 70%
  mean % activity: 27%
[8]; RSK1, duplicate runs
  % activity: 24% and 30%
[9]; ERK8
  % Inhibition, Mean: 15%
  % Inhibition, Run 1 / Run 2: 15%
  mean % activity: 85%
[9]; ERK8, duplicate runs
  % activity: 86% and 85%
[10]; JNK1
  % Inhibition, Mean: 5%
  mean % activity: 95%
[10]; JNK1, duplicate runs
  % activity: 88% and 102%
